Assay results: paper PMC2813863, “In Vivo Evaluation of α7 Nicotinic Acetylcholine Receptor Agonists [^11C]A-582941 and [^11C]A-844606 in Mice and Conscious Monkeys” (PLoS ONE, 2010)

Target: α7 nAChRs (Macaca mulatta, UniProt Q866A2)
Settings: rhesus monkey, in vivo
Description: Four young-adult male rhesus monkeys (Macaca mulatta) weighing from 4 to 6 kg were used for PET measurements. The monkeys were trained for the protocol as described previously. The magnetic resonance images (MRI) of all monkeys were obtained with a Toshiba MRT-50A/II (0.5T) under anesthesia with pentobarbital. The stereotactic coordinates of PET and MRI were adjusted based on the orbitomeatal (OM) line with monkeys secured in a specially designed head holder. At least 1 month before the PET study, an acrylic plate, with which the monkey was fixed to the monkey chair, was attached to the head under pentobarbital anesthesia as described previously.
PET data were collected on a high-resolution PET scanner (SHR-7700; Hamamatsu Photonics K.K., Hamamatsu, Japan). The camera consists of 16 detector rings and acquires 20 slices at a center-to-center interval of 3.6 mm with a transaxial resolution of 2.6 mm full width at half maximum. After an overnight fast, the monkey was fixed to the monkey chair with stereotactic coordinates aligned parallel to the OM line. A cannula was implanted in the posterior tibial vein, and [^11C]A-582941 or [^11C]A-844606 (1152–1336 MBq/26.8–63.1 nmol) was injected into the monkey through the venous cannula. PET images were acquired over 91 min (10 sec ×6 frames, 30 sec ×6 frames, 1 min ×12 frames, and 3 min ×25 frames). PET scans were reconstructed using a filtered backprojection method in a 100×100 matrix, with a voxel size of 1.2 mm ×1.2 mm ×3.6 mm. Summed image of late phase (from 70 to 91 min post-injection) was calculated as a static SUV (activity/ml tissue)/(injected activity/g body weight) image. Each MRI was coregistered to an early (from 0 to 20 min) summed image using normalized mutual information, and ROIs were placed on the summed image with reference to the coregistered MRI. Three monkeys underwent [^11C]A-582941 scan morning, and then two of the three monkeys underwent [^11C]A-844606 afternoon (baseline). Within 6 months the last one of the three monkeys underwent two [^11C]A-844606 scans in the baseline (morning) and blocking (afternoon) conditions 30 min after injection of SSR180711 (5.0 mg/kg, i.v.), and the fourth monkey underwent two [^11C]A-582941 scans in the baseline and blocking conditions in the same way.
For the semi-quantitative analysis of PET data, arterial samples were obtained every 8 sec from injection to 64 sec, and then again at 1.5, 2.5, 4, 6, 10, 20, 30, 45, 60, and 90 min after each tracer injection. Blood samples were centrifuged to separate the plasma, weighed, and subjected to radioactivity measurement. For metabolite analysis, methanol was added to some plasma samples, the resulting solutions were centrifuged, and the supernatants were developed with TLC plates (AL SIL G/UV; Whatman, Kent, UK) using a mobile phase of dichloromethane/diethyl ether/ethanol/triethylamine (20/20/2/2, v/v/v/v). At each sampling time point, the ratio of radioactivity in the unmetabolized fraction to that in the total plasma (metabolite plus unmetabolite) was determined using a phosphoimaging plate (BAS-1500 MAC; Fuji Film Co., Tokyo, Japan). The pTACs corrected for metabolite were obtained. The tTACs in each region of interest (ROI) in the brain were calculated as the %ID/ml or as a standardized uptake value (SUV), (activity/ml tissue)/(injected activity/g body weight). Using the tTACs and the metabolite-corrected pTAC, the V T for each tracer was evaluated by Logan graphical analysis.

α7 nAChRs, sequence (Q866A2 23-502): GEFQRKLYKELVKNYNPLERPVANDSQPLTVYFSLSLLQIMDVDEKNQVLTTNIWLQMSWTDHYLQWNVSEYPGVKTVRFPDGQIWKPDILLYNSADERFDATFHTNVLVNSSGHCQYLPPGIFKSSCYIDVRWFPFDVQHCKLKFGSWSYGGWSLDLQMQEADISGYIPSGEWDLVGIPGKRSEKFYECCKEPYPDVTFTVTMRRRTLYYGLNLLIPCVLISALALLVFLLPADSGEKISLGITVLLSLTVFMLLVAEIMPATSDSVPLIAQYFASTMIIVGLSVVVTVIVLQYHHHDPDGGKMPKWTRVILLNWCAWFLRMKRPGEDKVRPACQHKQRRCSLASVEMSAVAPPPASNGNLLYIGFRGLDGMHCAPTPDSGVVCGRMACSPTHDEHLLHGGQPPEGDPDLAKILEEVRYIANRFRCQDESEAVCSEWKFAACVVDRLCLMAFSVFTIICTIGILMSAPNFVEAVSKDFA

[11CH3]N1CC2CN(c3ccc(-c4ccccc4)nn3)CC2C1 (stereo not shown) [[^11C]A-582941, 2-[^11C]Methyl-5-[6-phenylpyridazine-3-yl]octahydropyrrolo[3,4-c]pyrrole]
V T Baseline, Cerebellum (male): 25.4 mL/g | V T Baseline, Frontal cortex (male): 34.5 mL/g | V T Baseline, Hippocampus (male): 31.6 mL/g | V T Baseline, Thalamus (male): 34.0 mL/g | V T SSR180711, Cerebellum (male): 17.3 mL/g | V T SSR180711, Frontal cortex (male): 23.0 mL/g | V T SSR180711, Hippocampus (male): 20.4 mL/g | V T SSR180711, Thalamus (male): 23.6 mL/g | V T, cerebellum (mean ± SD) (male): 23.0±3.4 | V T, cerebellum (range) (male): 18.0–25.4 | V T, frontal cortex (mean ± SD) (male): 29.2±4.7 | V T, frontal cortex (range) (male): 23.2–34.5 | V T, hippocampus (mean ± SD) (male): 28.0±3.8 | V T, hippocampus (range) (male): 22.8–31.6 | V T, thalamus (mean ± SD) (male): 30.4±4.1 | V T, thalamus (range) (male): 24.6–34.0 | time of peak radioactivity in the four brain regions (thalamus, frontal cortex, hippocampus, cerebellum) (male): 10 min | % decrease of V T, Cerebellum: 32.0% | % decrease of V T, Frontal cortex: 33.4% | % decrease of V T, Hippocampus: 35.5% | % decrease of V T, Thalamus: 30.5% | decrease of V T by pretreatment with SSR180711: ~30%
